Counter-ions that a name gives are not always drawn.

In patent US11466016B2, “Pharmaceutical compounds” (priority 2018, dated 2022) one finds IC50 data, which are given here for 28 compounds.

One assay addresses SHP2 (Homo sapiens (Human), UniProt Q06124). As to the kind of experiment: SHP2 Biochemical Assay (DiFMUP conversion, pIRS1 activating peptide).
Settings: not given
The protocol: SHP2 activity was monitored by measuring the conversion of the surrogate substrate 6,8-difluoromethylumbelliferyl phosphate (DiFMUP) to the fluorescent product, 6,8-difluoromethylumbelliferone (DiFMU).
SHP2 was pre-incubated with test compounds and the activating peptide pIRS1 (H2N-LN(pY)IDLDLV-(PEG)8-LST(pY)ASINFQK-amide) for 30 min, prior to addition of the […] (DiFMUP), (Thermo Fisher D6567). […] Rates of reaction were then measured over 30 min by monitoring fluorescence on a BMG Pherastar reader at excitation 360 nm/emission 450 nm. IC50 values were calculated from the normalized dose-response plots using four parameter logistic curve fit.
The IC50 is the midpoint of a concentration-inhibition curve. In turn, `Cn1cc2c(Cl)c(-c3c[nH]c4nc(N5[C@@H]6CC[C@H]5[C@H](F)[C@H](N)C6)cnc34)ccc2n1` (racemic) [Example 12, rac-(1S,2R,3R,5R)-8-[7-(4-chloro-2-methyl-2H-indazol-5-yl)-5H-pyrrolo[2,3-b]pyrazin-3-yl]-2-fluoro-8-azabicyclo[3.2.1]octan-3-amine] registered an IC50 of 15 nM.

`Cn1cc2c(Cl)c(-c3n[nH]c4nc(N5[C@H]6CC[C@@H]5[C@@H](F)[C@@H](N)C6)c(CO)nc34)ccc2n1` (racemic) [Example 78, rac-{6-[(1R,2S,3S,5S)-3-amino-2-fluoro-8-azabicyclo[3.2.1]octan-8-yl]-3-(4-chloro-2-methyl-2H-indazol-5-yl)-1H-pyrazolo[3,4-b]pyrazin-5-yl}methanol] had an IC50 of 15 nM.

Still in this assay, the particulars now being: DiFMUP substrate, 0.25 μM pIRS1 peptide, 30 min pre-incubation; average where more than one data point; read-out: SHP2 (IC50).
As to “2-(5-{3-[endo-3-amino-8-azabicyclo[3.2.1]octan-8-yl]-5H-pyrrolo[2,3-b]pyrazin-7-yl}-3,4-dichloro-2H-indazol-2-yl)ethan-1-ol [Example 36]”, the IC50 was 6 nM.

Turning to `CN(C)c1nc2ccc(-c3n[nH]c4nc(N5C6CCC5[C@@H](F)[C@@H](N)C6)c(CO)nc34)c(Cl)c2s1` (stereo in doubt) [Example 123, {6-[(1S,2S,3S,5R)-3-amino-2-fluoro-8-azabicyclo[3.2.1]octan-8-yl]-3-[7-chloro-2-(dimethylamino)-1,3-benzothiazol-6-yl]-1H-pyrazolo[3,4-b]pyrazin-5-yl}methanol], the IC50 was found to be 9.7 nM.

With `Cc1nc2ccc(-c3n[nH]c4nc(N5C6CCC5[C@@H](F)[C@@H](N)C6)c(C)nc34)c(Cl)c2s1` (stereo in doubt) [Example 146, (1S,2S,3S,5R)-8-[3-(7-chloro-2-methyl-1,3-benzothiazol-6-yl)-5-methyl-1H-pyrazolo[3,4-b]pyrazin-6-yl]-2-fluoro-8-azabicyclo[3.2.1]octan-3-amine], the concentration for half-maximal inhibition (IC50) worked out at 7.4 nM.

Turning to `Cn1cc2c(Cl)c(-c3c[nH]c4nc(N5[C@@H]6CC[C@H]5C[C@H](CN)C6)cnc34)ccc2n1` [Example 1, 1-[exo-8-[7-(4-chloro-2-methyl-2-indazol-5-yl)-5H-pyrrolo[2,3-b]pyrazin-3-yl]-8-azabicyclo[3.2.1]octan-3-yl]methanamine], the half-maximal inhibitory concentration (IC50) is 13 nM.

Consider `Cn1cc2c(Cl)c(-c3c[nH]c4nc(N5[C@@H]6CC[C@H]5C[C@H](N)C6)cnc34)ccc2n1` [Example 2, exo-8-[7-(4-chloro-2-methyl-2H-indazol-5-yl)-5H-pyrrolo[2,3-b]pyrazin-3-yl]-8-azabicyclo[3.2.1]octan-3-amine], for which the concentration for half-maximal inhibition (IC50) is 8.1 nM.

`Cn1cc2c(Cl)c(-c3c[nH]c4nc(N5[C@@H]6CC[C@H]5C[C@@H](N)C6)cnc34)ccc2n1` [Example 3, endo-8-[7-(4-chloro-2-methyl-2H-indazol-5-yl)-5H-pyrrolo[2,3-b]pyrazin-3-yl]-8-azabicyclo[3.2.1]octan-3-amine]: the IC50 stood at 10 nM.

For `Cn1cc2c(Cl)c(-c3c[nH]c4nc(N5CCC(N)CC5)cnc34)ccc2n1` [Example 4, 1-[7-(4-chloro-2-methyl-2H-indazol-5-yl)-5H-pyrrolo[2,3-b]pyrazin-3-yl]piperidin-4-amine], the IC50 amounted to 16 nM.

`Cn1cc2c(Cl)c(-c3c[nH]c4nc(N5CCC(C)(N)CC5)cnc34)ccc2n1` [Example 5, 1-[7-(4-chloro-2-methyl-2H-indazol-5-yl)-5H-pyrrolo[2,3-b]pyrazin-3-yl]-4-methylpiperidin-4-amine]: the IC50 came out at 18 nM.

Take `Cn1cc2c(Cl)c(-c3c[nH]c4nc(N5[C@@H]6CCC[C@H]5C[C@@H](N)C6)cnc34)ccc2n1` [Example 6, endo-9-[7-(4-chloro-2-methyl-2H-indazol-5-yl)-5H-pyrrolo[2,3-b]pyrazin-3-yl]-9-azabicyclo[3.3.1]nonan-3-amine]: the IC50 came to 9 nM.

Consider `Cn1cc2c(Cl)c(-c3c[nH]c4nc(N5CCC(N)(CO)CC5)cnc34)ccc2n1` [Example 7, {4-amino-1-[7-(4-chloro-2-methyl-2H-indazol-5-yl)-5H-pyrrolo[2,3-6]pyrazin-3-yl]piperidin-4-yl}methanol], for which the IC50 was determined as 23 nM.

As to `Cn1cc2c(Cl)c(-c3c[nH]c4nc(N5[C@@H]6CC[C@H]5C[C@@](C)(N)C6)cnc34)ccc2n1` [Example 8, endo-8-[7-(4-chloro-2-methyl-2H-indazol-5-yl)-5H-pyrrolo[2,3-b]pyrazin-3-yl]-3-methyl-8-azabicyclo[3.2.1]octan-3-amine, methanesulfonic acid salt], the half-maximal inhibitory concentration (IC50) came out at 17 nM.

With `Cn1cc2c(Cl)c(-c3c[nH]c4nc(N5C6CCC5CNC6)cnc34)ccc2n1` [Example 9, 4-chloro-5-(3-{3,8-diazabicyclo[3.2.1]octan-8-yl}-5H-pyrrolo[2,3-b]pyrazin-7-yl)-2-methyl-2H-indazole], the half-maximal inhibitory concentration (IC50) was 26 nM.

For the compound `Cn1cc2c(Cl)c(-c3c[nH]c4nc(N5CCC6(CC5)CNC6)cnc34)ccc2n1` [Example 10, 7-[7-(4-chloro-2-methyl-2H-indazol-5-yl)-5H-pyrrolo[2,3-b]pyrazin-3-yl]-2,7-diazaspiro[3.5]nonane], the IC50 was 14 nM.

For `Cc1nc2c(-c3ccc4nn(C)cc4c3Cl)c[nH]c2nc1N1CCC(C)(CN)CC1` [Example 11, 1-{1-[7-(4-chloro-2-methyl-2H-indazol-5-yl)-2-methyl-5H-pyrrolo[2,3-b]pyrazin-3-yl]-4-methylpiperidin-4-yl]methanamine, dihydrochloride salt], the IC50 is 43 nM.

As for `N[C@H]1C[C@H]2CC[C@@H](C1)N2c1cnc2c(-c3ccc4ncsc4c3Cl)c[nH]c2n1` [Example 13, endo-8-[7-(7-chloro-1,3-benzothiazol-6-yl)-5H-pyrrolo[2,3-b]pyrazin-3-yl]-8-azabicyclo[3.2.1]octan-3-amine, methanesulfonic acid salt], the IC50 worked out at 6.2 nM.

As for `Cc1nc2c(-c3ccc4nn(C)cc4c3Cl)c[nH]c2nc1N1CCC(C)(N)CC1` [Example 14, 1-[7-(4-chloro-2-methyl-2H-indazol-5-yl)-2-methyl-5H-pyrrolo[2,3-b]pyrazin-3-yl]-4-methylpiperidin-4-amine], the IC50 is 89 nM.

For `Cc1nc2ccc(-c3c[nH]c4nc(N5[C@@H]6CC[C@H]5C[C@@H](N)C6)cnc34)c(Cl)c2s1` [Example 15, endo-8-[7-(7-chloro-2-methyl-1,3-benzothiazol-6-yl)-5H-pyrrolo[2,3-b]pyrazin-3-yl]-8-azabicyclo[3.2.1]octan-3-amine, methanesulfonic acid salt], the 50% inhibitory concentration (IC50) came out at 5.9 nM.

Take `Cn1cc2c(Cl)c(-c3c[nH]c4nc(N5CCC6(CCN6)CC5)cnc34)ccc2n1` [Example 16, 7-[7-(4-chloro-2-methyl-2H-indazol-5-yl)-5H-pyrrolo[2,3-b]pyrazin-3-yl]-1,7-diazaspiro[3.5]nonane]: the IC50 amounted to 24 nM.

In the case of `Cc1nc2c(-c3ccc4nn(C)cc4c3Cl)c[nH]c2nc1N1[C@@H]2CC[C@H]1C[C@@H](N)C2` [Example 17, endo-8-[7-(4-chloro-2-methyl-2H-indazol-5-yl)-2-methyl-5H-pyrrolo[2,3-b]pyrazin-3-yl]-8-azabicyclo[3.2.1]octan-3-amine], the IC50 is 20 nM.

In the case of `CN(C)c1nc2ccc(-c3c[nH]c4nc(N5[C@@H]6CC[C@H]5C[C@@H](N)C6)cnc34)c(Cl)c2s1` [Example 18, 6-{3-[endo-3-amino-8-azabicyclo[3.2.1]octan-8-yl]-5H-pyrrolo[2,3-b]pyrazin-7-yl}-7-chloro-N,N-dimethyl-1,3-benzothiazol-2-amine, hydrochloride salt], the IC50 came to 13 nM.

Consider `N[C@H]1C[C@H]2CC[C@@H](C1)N2c1cnc2c(-c3ccc4oc(=O)[nH]c4c3Cl)c[nH]c2n1` [Example 19, 5-{3-[endo-3-amino-8-azabicyclo[3.2.1]octan-8-yl]-5H-pyrrolo[2,3-b]pyrazin-7-yl}-4-chloro-2,3-dihydro-1,3-benzoxazol-2-one, hydrochloride salt], for which the IC50 is 47 nM.

`Cc1nc2c(-c3ccc4nn(C)cc4c3Cl)c[nH]c2nc1N1[C@@H]2CC[C@H]1C[C@H](N)C2` [Example 20, exo-8-[7-(4-chloro-2-methyl-2H-indazol-5-yl)-2-methyl-5H-pyrrolo[2,3-b]pyrazin-3-yl]-8-azabicyclo[3.2.1]octan-3-amine]: the IC50 was 10 nM.

As for `Cc1nc2ccc(-c3c[nH]c4nc(N5[C@@H]6CC[C@H]5C[C@@H](N)C6)cnc34)c(Cl)c2c(=O)[nH]1` [Example 21, 6-{3-[endo-3-amino-8-azabicyclo[3.2.1]octan-8-yl]-5H-pyrrolo[2,3-b]pyrazin-7-yl}-5-chloro-2-methyl-3,4-dihydroquinazolin-4-one], the IC50 was 11 nM.

In the case of `CN(C)c1ccc2ccc(-c3c[nH]c4nc(N5[C@@H]6CC[C@H]5C[C@@H](N)C6)cnc34)c(Cl)c2n1` [Example 22, 7-{3-[endo-3-amino-8-azabicyclo[3.2.1]octan-8-yl]-5H-pyrrolo[2,3-b]pyrazin-7-yl}-8-chloro-N,N-dimethylquinolin-2-amine, hydrochloride salt], the half-maximal inhibitory concentration (IC50) stood at 26 nM.

As to `N[C@H]1C[C@H]2CC[C@@H](C1)N2c1cnc2c(-c3ccc4[nH]c(=O)sc4c3Cl)c[nH]c2n1` [Example 23, 6-{3-[endo-3-amino-8-azabicyclo[3.2.1]octan-8-yl]-5H-pyrrolo[2,3-b]pyrazin-7-yl}-7-chloro-2,3-dihydro-1,3-benzothiazol-2-one, hydrochloride salt], the IC50 came to 5.2 nM.

With `Cn1nc2ccc(-c3c[nH]c4nc(N5[C@@H]6CC[C@H]5C[C@@H](N)C6)cnc34)c(Cl)c2c1Cl` [Example 24, endo-8-[7-(3,4-dichloro-2-methyl-2H-indazol-5-yl)-5H-pyrrolo[2,3-b]pyrazin-3-yl]-8-azabicyclo[3.2.1]octan-3-amine, methanesulfonic acid salt], the 50% inhibitory concentration (IC50) is 4.3 nM.
